The values below come from PMC5716981, “Inhibition of A2A Adenosine Receptor Signaling in Cancer Cells Proliferation by the Novel Antagonist TP455” (Frontiers in Pharmacology, 2017).

Counter-ions that a name gives are not always drawn.

One test has as its target A2AARs (Rattus norvegicus, UniProt P30543). As to the kind of experiment: biochemical.
The next test deals with pJNK1/2. In words: AlphaScreen SureFire pJNK1/2 assay in MRMT-1, A375 and A549 cells. The settings on record: for inhibition of CGS21680-mediated JNK1/2 phosphorylation: 10 μM inhibitor, 100 nM CGS 21680, MRMT-1, A375 and A549 cells. It is filed as cell-based, human and rat. On the procedure:
(§1) AlphaScreen SureFire phospho(p)ERK1/2(Thr202/Tyr204), pJNK1/3(pThr183/Tyr185), and p-AKT1/2/3 (pThr308) assay kits (Perkin Elmer, Milan, Italy) were utilized. Upon kinase phosphorylation and excitation at 680 nm, fluorescent signals at 615 nm are emitted. Cells were seeded in 100 μl culture medium into 96-well plates (30,000/well), and incubated at 37°C for 24 h. Cells were pretreated with various inhibitors and TP455 for 30 min. Then, receptors were maximally stimulated using 100 nM CGS 21680 and incubated for 5 min (ERK1/2, JNK1/2-MAPK) or 30 min (AKT) at 37°C. After agonist removal, lysis buffer was added, then donor and acceptor beads linked to specific anti-p-kinase- and anti-kinase-antibodies were dispensed, according to manufacturer instructions. Finally, fluorescent signals were detected through an Ensight Perkin Elmer-multimode plate reader (Perkin Elmer, Milan, Italy). Data were normalized to fold activation above basal p-kinase levels (=100). For inhibitor graphs, raw data were transformed into percentages relative to controls (basal level = 100%) in order to merge data from several experiments.

The subject of another test is pAKT. As to the kind of experiment: AlphaScreen SureFire pAKT assay in MRMT-1, A375 and A549 cells. The class given is cell-based, human and rat. To be noted: for inhibition of CGS21680-mediated AKT phosphorylation: 10 μM inhibitor, 100 nM CGS 21680, MRMT-1, A375 and A549 cells. The method, then: as §1, with “Then, receptors were maximally stimulated using 100 nM CGS 21680 and incubated for 5 min (ERK1/2, JNK1/2-MAPK) or 30 min (AKT) at 37°C.” left out

For the next test, the system named is A549 cells. In words: DELFIA cell proliferation (BrdU) in A549 cells. It is filed as cell-based, human. To be noted: for effect on cell proliferation: 100 nM; for inhibition of CGS21680-induced cell proliferation by signalling inhibitor: 10 μM inhibitor 30 min pretreatment. On the procedure:
(§2) Tumoral cell lines A375 (human skin malignant melanoma), A549 (adenocarcinomic human alveolar basal epithelial cells) and rat cell line MRMT-1 (rat breast carcinoma cells) were purchased from ATCC and were grown adherently at 37°C in 5% CO2/95% air. A375 and A549 were maintained in DMEM high glucose medium containing 10% fetal calf serum, penicillin (100 U/mL) and streptomycin ([…]) and MRMT-1 were grown in RPMI 1640 medium containing 10% fetal calf serum, penicillin (100 U/mL), streptomycin ([…]), and L-glutamine (2 mM). Adenosine receptor agonists and antagonists and inhibitors of kinases, were made up in dimethyl sulfoxide solution (DMSO) and then diluted in cell culture medium (0.1 max 0.2% of DMSO). An equal amount of DMSO was used in control cells (CTR).
(§3) The DELFIA assay was performed to determine cell proliferation according to the manufacturer’s protocol from PerkinElmer (Milan, Italy). The assay is a time-resolved fluoroimmunoassay based on the incorporation of BrdU into newly synthesized DNA strands of proliferating cells cultured in microliter plates. Incorporated BrdU is detected using a europium labeled monoclonal antibody and the fluorescence measured is proportional to the DNA synthesis in the cell population of each well. A375, A549, and MRMT-1 cells were cultured over night at 1000 cells/well in a 96-well plate (at a final volume of 100 μl per well), agonists and antagonists were added and the cells were incubated for 30′ before addition of the BrdU-Labeling solution 10 μl/well. The cells were then cultured for 24, 48, or 72 h. At the end of the incubation period, cells were fixed (fix solution 100 μl/well), added with 100 μl/well of Anti-BrdU-Eu (0.5 μg/ml) and incubated for 120 min at room temperature. After four washes, 200 μl of DELFIA Inducer were added at room temperature for 15 min and the Eu-fluorescence was detected through an Ensight Perkin Elmer-multimode plate reader (Perkin Elmer, Milan, Italy). Two kinds of controls were performed: the blank where no cells were added to the well but only culture medium and the background where no BrdU was added to the wells.

For another test, the system named is A375 cells. As to the kind of experiment: DELFIA cell proliferation (BrdU) in A375 cells. It is filed as cell-based, human. To be noted: for inhibition of CGS21680-induced cell proliferation by signalling inhibitor: 10 μM inhibitor 30 min pretreatment. On the procedure: as §2, §3
The test system of the next test is MRMT-1 cells. In words: DELFIA cell proliferation (BrdU) in MRMT-1 cells. The class given is cell-based, rat. The settings on record: for inhibition of CGS21680-induced cell proliferation by signalling inhibitor: 10 μM inhibitor 30 min pretreatment. On the procedure: as §2, §3
The test system of a further test is pERK1/2. As to the kind of experiment: AlphaScreen SureFire pERK1/2 assay in MRMT-1, A375 and A549 cells. It is filed as cell-based, human and rat. The settings on record: for inhibition of CGS21680-mediated ERK1/2 phosphorylation: 10 μM inhibitor, 100 nM CGS 21680, MRMT-1, A375 and A549 cells. The method, then:
as §1

Setting [1] is: 100 nM, 0-60 min, MRMT-1, A375 and A549 cells.
Where [2] appears, read: 100 nM antagonist 30 min pretreatment, 100 nM CGS21680 5 min, MRMT-1, A375 and A549 cells.
Setting [3] is: 100 nM antagonist 30 min pretreatment, 100 nM CGS21680, 48 h.

Broadly, the Ki is a dissociation constant, usually derived from enzyme kinetics or from competition with a known ligand.

Chain of A2AARs (P30543 whole entry): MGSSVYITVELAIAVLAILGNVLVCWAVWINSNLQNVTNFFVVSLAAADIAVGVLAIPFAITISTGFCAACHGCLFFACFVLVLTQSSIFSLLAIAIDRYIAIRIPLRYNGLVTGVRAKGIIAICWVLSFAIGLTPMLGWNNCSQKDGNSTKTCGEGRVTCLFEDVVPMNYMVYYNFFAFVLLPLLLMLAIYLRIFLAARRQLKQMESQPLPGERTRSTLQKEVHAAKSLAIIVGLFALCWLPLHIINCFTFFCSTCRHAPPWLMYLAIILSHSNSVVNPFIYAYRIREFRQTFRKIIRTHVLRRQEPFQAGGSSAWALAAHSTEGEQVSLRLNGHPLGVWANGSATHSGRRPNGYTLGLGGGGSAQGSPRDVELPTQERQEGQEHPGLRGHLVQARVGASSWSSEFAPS
Protocol for A2AARs: For membrane preparation the culture medium was removed. […] The cell suspension was homogenized with Polytron and the homogenate was spun for 10 min at 1000 g. The supernatant was then centrifuged for 30 min at 100,000g. The membrane pellet was resuspended in 50 mM Tris HCl buffer pH 7.4, 10 mM MgCl2. […] Then the suspension was frozen at -80°C.
At the end of the incubation, bound and free radioactivity were separated by filtering, in a Brandel cell harvester, the assay mixture through Whatman GF/B glass-fiber filters. The filter bound radioactivity was counted in a liquid Scintillation Counter Tri Carb Packard 2500 TR (Perkin-Elmer Life and Analytical Sciences, Boston, MA, United States).
LIGAND was also used to determine inhibitory binding constant (Ki) values from the competition binding experiments. All values in the figures and text are expressed as mean ± standard error (SE) of three independent experiments.

Molecule `Nc1nc2ccc(Cl)cc2c2nc(-c3ccco3)nn12` [CGS15943] showed a Ki on A2AARs of 2.15 nM.
For `CCNC(=O)[C@H]1O[C@@H](n2cnc3c(N)nc(NCCc4ccc(CCC(=O)O)cc4)nc32)[C@H](O)[C@@H]1O` [CGS21680, 2-p-(2-Carboxyethyl)phenethylamino-5′-N-ethylcarboxamido-adenosine hydrochloride hydrate], the “JNK1/2 phosphorylation time course” value with pJNK1/2 (setting [1]) is reported as “reached a maximal effect after 5 min”. Moreover, the “AKT phosphorylation time course” value in the test on pAKT (setting [1]) was “started to increase after 10 min”. Moreover, the “effect on cell proliferation” value in the test on A549 cells (48 and 72 h) is listed as “not more present”; with A549 cells (24 h) it was “slightly increased cell proliferation”; in the test with A375 cells (100 nM, only at 48 h) it was “stimulatory effect of cell proliferation”; in the test on MRMT-1 cells (10 nM, 48 and 72 h) it was “raised cell vitality”; in the test with MRMT-1 cells (100 nM, 24, 48 and 72 h), “significant stimulation”. Also, in the test with pERK1/2 (setting [1]), the “ERK1/2 phosphorylation time course” value is “reached a maximal effect after 5 min”.
As to `Oc1ccc(-c2nc(-c3ccc(F)cc3)c(-c3ccncc3)[nH]2)cc1` [SB202190, 4-(4-Fluorophenyl)-2-(4-hydroxyphenyl)-5-(4-pyridyl)-1H-imidazole], the “inhibition of CGS21680-induced cell proliferation by signalling inhibitor” value (“inhibition … by signalling inhibitor” for short) was “did not” in the test with A549 cells (100 nM CGS21680, 24 h); “did not” in the test on A375 cells (100 nM CGS21680, 48 h); “did not” in the test with MRMT-1 cells (100 nM CGS21680, 48 h).
`Nc1nc2c(cnn2CCc2ccccc2)c2nc(-c3ccco3)nn12` [SCH58261] returned a Ki on A2AARs of 3.26 nM.
On to `CCCCCCCCCCCCCCCCCCOC[C@H](COP(=O)(O)O[C@H]1[C@H](O)[C@@H](O)[C@H](O)C[C@H]1OC)OC` [SH5, D-3-Deoxy-2-O-methyl-myo-inositol 1-[(R)-2-methoxy-3-(octadecyloxy)propyl hydrogen phosphate]], for which the “inhibition … by signalling inhibitor” value in the test on A549 cells (100 nM CGS21680, 24 h) is listed as “strongly reduced”; in the test on A375 cells (100 nM CGS21680, 48 h) it was “strongly reduced”; with MRMT-1 cells (100 nM CGS21680, 48 h), “strongly reduced”.
On to `Oc1c2ccccc2c2c3c(cccc13)N=N2` [SP600125, 1,9-Pyrazoloanthrone], for which the “inhibition … by signalling inhibitor” value with A549 cells (100 nM CGS21680, 24 h) is on record as “strongly reduced”; in the test on A375 cells (100 nM CGS21680, 48 h) it was “strongly reduced”; with MRMT-1 cells (100 nM CGS21680, 48 h), “strongly reduced”.
Take `Nc1ncnc2c1ncn2C1CCCO1` (stereo not shown) [SQ22,536]: the “inhibition … by signalling inhibitor” value is “did not block the agonist effect” in the test on A549 cells (100 nM CGS21680, 24 h); “did not block the agonist effect” with A375 cells (100 nM CGS21680, 48 h); “did not block the agonist effect” in the test with MRMT-1 cells (100 nM CGS21680, 48 h).
For the molecule `N#CC(=C(/N)Sc1ccccc1N)/C(C#N)=C(/N)Sc1ccccc1N` [U0126], the “inhibition … by signalling inhibitor” value in the test with A549 cells (100 nM CGS21680, 24 h) is “strongly reduced”; in the test on A375 cells (100 nM CGS21680, 48 h) it was “strongly reduced”; with MRMT-1 cells (100 nM CGS21680, 48 h), “strongly reduced”.
`COc1ccc2c(c1)CC[C@@H]1[C@@H]2CC[C@]2(C)[C@@H](NCCCCCCN3C(=O)C=CC3=O)CC[C@@H]12` [U73122, 1-[6-[[(17β)-3-Methoxyestra-1,3,5(10)-trien-17-yl]amino]hexyl]-1H-pyrrole-2,5-dione]: in the test on pJNK1/2, the “inhibition of CGS21680-mediated JNK1/2 phosphorylation” value is listed as “strongly reduced”. Besides, the “inhibition of CGS21680-mediated AKT phosphorylation” value in the test with pAKT is recorded as “strongly reduced”. Moreover, the “inhibition … by signalling inhibitor” value in the test with A549 cells (100 nM CGS21680, 24 h) is given as “able to antagonize the stimulatory effect”; with A375 cells (100 nM CGS21680, 48 h) it was “able to antagonize the stimulatory effect”; with MRMT-1 cells (100 nM CGS21680, 48 h) it was “able to antagonize the stimulatory effect”. In addition, the “inhibition of CGS21680-mediated ERK1/2 phosphorylation” value in the test with pERK1/2 is recorded as “strongly reduced”.
`Nc1nc(NCCc2ccc(O)cc2)nc2nc(-c3ccco3)nn12` [ZM241385, 4-(2-[7-Amino-2-(2-furyl) [1,2,4]triazolo[2,3-a][1,3,5]triazin-5-ylamino]ethyl)phenol]: in the test on pJNK1/2 (setting [2]), the “antagonism of CGS21680-induced JNK1/2 phosphorylation” value is listed as “completely reverted”. For the same molecule, the “antagonism of CGS21680-induced AKT phosphorylation” value in the test on pAKT (100 nM antagonist 30 min pretreatment, 100 nM CGS21680 10 min, MRMT-1, A375 and A549 cells) is “completely reverted”. Moreover, the “effect on cell proliferation when tested alone” value with A549 cells (100 nM alone, 24 h) is “did not alter cell proliferation”; in the test with A375 cells (100 nM alone, 48 h) it was “did not alter cell proliferation”; in the test on MRMT-1 cells (100 nM alone, 48 h), “did not alter cell proliferation”. Moreover, the “antagonism of CGS21680-induced cell proliferation” value is on record as “completely block the agonist effect” with A549 cells (100 nM antagonist 30 min pretreatment, 100 nM CGS21680, 24 h); “completely block the agonist effect” in the test with A375 cells (setting [3]); “completely block the agonist effect” in the test with MRMT-1 cells (setting [3]). In the test with pERK1/2 (setting [2]), the “antagonism of CGS21680-induced ERK1/2 phosphorylation” value was “completely reverted”.
As for `CC(=O)c1c(O)c(C)c(O)c(Cc2c(O)c3c(c(C(=O)C=Cc4ccccc4)c2O)OC(C)(C)C=C3)c1O` [rottlerin, 1-[6-[(3-Acetyl-2,4,6-trihydroxy-5-methylphenyl)methyl]-5,7-dihydroxy-2,2-dimethyl-2H-1-benzopyran-8-yl]-3-phenyl-2-propen-1-one], the “inhibition of CGS21680-mediated JNK1/2 phosphorylation” value in the test with pJNK1/2 is listed as “strongly reduced”. Further, the “inhibition of CGS21680-mediated AKT phosphorylation” value in the test on pAKT is “strongly reduced”. Moreover, the “inhibition … by signalling inhibitor” value was “able to antagonize the stimulatory effect” in the test with A549 cells (100 nM CGS21680, 24 h); “able to antagonize the stimulatory effect” in the test on A375 cells (100 nM CGS21680, 48 h); “able to antagonize the stimulatory effect” in the test on MRMT-1 cells (100 nM CGS21680, 48 h). Further, the “inhibition of CGS21680-mediated ERK1/2 phosphorylation” value in the test with pERK1/2 was “strongly reduced”.
